The values that follow come from US20240254114A1, “PREPARATION OF FUSED AZOLE DERIVATIVES AS NOVEL DIACYLGLYCERIDE 0-ACYLTRANSFERASE 2 INHIBITORS” (Merck Sharp & Dohme LLC, priority 2022, published 2024).

The target in the first test is human DGAT2 (Homo sapiens (Human), UniProt Q96PD7). Nature of the test: DGAT2 Enzymatic Activity Assay. Conditions: Human DGAT2 IC50, hDGAT2 membrane prep from Sf-9 cells; 13C18-triolein product by LC/MS/MS.
Sequence of human DGAT2 (Q96PD7 whole entry): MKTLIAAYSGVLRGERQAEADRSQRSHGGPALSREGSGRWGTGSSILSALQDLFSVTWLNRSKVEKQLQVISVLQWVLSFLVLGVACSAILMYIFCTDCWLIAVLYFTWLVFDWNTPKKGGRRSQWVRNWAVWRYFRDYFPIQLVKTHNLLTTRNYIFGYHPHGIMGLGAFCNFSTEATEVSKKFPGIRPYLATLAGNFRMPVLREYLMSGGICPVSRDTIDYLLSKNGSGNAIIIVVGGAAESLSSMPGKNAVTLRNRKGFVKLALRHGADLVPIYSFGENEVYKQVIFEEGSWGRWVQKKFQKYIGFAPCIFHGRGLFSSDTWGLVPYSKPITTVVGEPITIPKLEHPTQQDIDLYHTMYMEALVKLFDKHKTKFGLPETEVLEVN
Protocol: Sf-9 insect cells were maintained in Grace's insect cell culture medium with 10% heated-inactivated fetal bovine serum, 1% Pluronic F-68 and 0.14 μg/ml Kanamycine sulfate at 27° C. in a shaker incubator. After infection with untagged baculovirus expressing human DGAT2 (hDGAT2) at multiplicity of infection (MOI) 3 for 48 hours, cells were harvested. Cell pellets were suspended in buffer containing 10 mM Tris-HCl pH 7.5, 1 mM EDTA, 250 mM sucrose and Complete Protease Inhibitor Cocktail (Sigma Aldrich), and sonicated on ice. Cell debris were removed by centrifugation at 2000×g for 15 minutes. Membrane fractions were isolated by ultracentrifugation (100,000×g), resuspended in the same buffer, and frozen (−80° C.) for later use. The protein concentration was determined with the Pierce™ BCA Protein Assay Kit (Thermo Fisher Scientific).
LC/MS/MS analyses were performed using Thermal Fisher's LX4-TSQ Vantage system. This system consists of an Agilent binary high-performance liquid chromatography (HPLC) pump and a TSQ Vantage triple quadrupole MS/MS instrument. For each sample, 2 μL samples from the top organic layer of in-plate liquid-liquid extraction were injected onto a Thermo Betabasic C4 column (2.1 mm×20 mm, 5 μm particle size). The samples were then eluted using the following conditions; mobile phase: Isopropanol: acetonitrile/10 mM ammonium formate=50/35/15 (v/v/v), flow rate: 0.8 mL/min, temperature: 25° C. Data was acquired in positive mode using a heated electrospray ionization (HESI) interface. […] The peak area was integrated by Xcalibur Quan software. The ratio between the ^13C18 triolein generated in the reaction and spiked in internal standard ^13C21-triolein was used to generate percentage inhibition and IC50 values. […] DGAT2 activity was determined by measuring the amount of enzymatic product ^13C18-triolein (^13C-1,2,3-Tri(cis-9-octadecenoyl)glycerol) using the membrane prep mentioned above. The assay was carried out in ABgene 384-well assay plates in a final volume of 25 μL at rt.
Regarding `Cn1c(C(=O)NC2(C)CCS(=O)(=O)CC2)nc2ccc(OCC(CC(F)(F)F)OC(F)F)nc21` (single isomer, unassigned) [Example 62a, 5-[2-(difluoromethoxy)-4,4,4-trifluoro-butoxy]-3-methyl-N-(4-methyl-1,1-dioxo-thian-4-yl)imidazo[4,5-b]pyridine-2-carboxamide], 1330 nM corresponded to half-maximal inhibition (IC50). With `Cn1c(C(=O)NC2(C)CCS(=O)(=O)CC2)nc2ccc(OCC(CC(F)(F)F)OC(F)F)nc21` (single isomer, unassigned) [Example 62b, 5-[2-(difluoromethoxy)-4,4,4-trifluoro-butoxy]-3-methyl-N-(4-methyl-1,1-dioxo-thian-4-yl)imidazo[4,5-b]pyridine-2-carboxamide], the IC50 is 163 nM. Molecule `Cn1c(C(=O)NC2(C)CCS(=O)(=O)CC2)nc2ccc(OCC(CC(F)(F)F)OCC(F)F)nc21` (single isomer, unassigned) [Example 63a, 5-[2-(2,2-difluoroethoxy)-4,4,4-trifluoro-butoxy]-3-methyl-N-(4-methyl-1,1-dioxo-thian-4-yl)imidazo[4,5-b]pyridine-2-carboxamide] gave an IC50 of 50 nM. In turn, `Cn1c(C(=O)NC2(C)CCS(=O)(=O)CC2)nc2ccc(OCC(CC(F)(F)F)OCC(F)F)nc21` (single isomer, unassigned) [Example 63b, 5-[2-(2,2-difluoroethoxy)-4,4,4-trifluoro-butoxy]-3-methyl-N-(4-methyl-1,1-dioxo-thian-4-yl)imidazo[4,5-b]pyridine-2-carboxamide] had an IC50 of 0.8 nM. The same measure, in the same setting: to `Cn1c(C(=O)NC2(C)CCS(=O)(=O)CC2)nc2ccc(OCC(OCC(F)F)C(F)(F)F)nc21` (single isomer, unassigned) [Example 64a, 5-[2-(2,2-difluoroethoxy)-3,3,3-trifluoro-propoxy]-3-methyl-N-(4-methyl-1,1-dioxo-thian-4-yl)imidazo[4,5-b]pyridine-2-carboxamide] belongs 1650 nM; to `Cn1c(C(=O)NC2(C)CCS(=O)(=O)CC2)nc2ccc(OCC(OCC(F)F)C(F)(F)F)nc21` (single isomer, unassigned) [Example 64b, 5-[2-(2,2-difluoroethoxy)-3,3,3-trifluoro-propoxy]-3-methyl-N-(4-methyl-1,1-dioxo-thian-4-yl)imidazo[4,5-b]pyridine-2-carboxamide], 3.3 nM; to `Cn1c(C(=O)NC2(C)CCS(=O)(=O)CC2)nc2ccc(OCC(OCC(F)F)C(F)F)nc21` (single isomer, unassigned) [Example 65a, 5-[2-(2,2-difluoroethoxy)-3,3-difluoro-propoxy]-3-methyl-N-(4-methyl-1,1-dioxo-thian-4-yl)imidazo[4,5-b]pyridine-2-carboxamide], 215 nM. As to `Cn1c(C(=O)NC2(C)CCS(=O)(=O)CC2)nc2ccc(OCC(OCC(F)F)C(F)F)nc21` (single isomer, unassigned) [Example 65b, 5-[2-(2,2-difluoroethoxy)-3,3-difluoro-propoxy]-3-methyl-N-(4-methyl-1,1-dioxo-thian-4-yl)imidazo[4,5-b]pyridine-2-carboxamide], the IC50 is 2.8 nM.

In the case of `O=C(N[C@H]1CCCC(F)(F)[C@@H]1O)c1nc2ccc(Oc3ncc(Cl)cc3OCC(F)(F)F)cc2o1` [Example 1, 6-[[5-chloro-3-(2,2,2-trifluoroethoxy)-2-pyridyl]oxy]-N-[(1S,2R)-3,3-difluoro-2-hydroxy-cyclohexyl]-1,3-benzoxazole-2-carboxamide], the midpoint of inhibition, the IC50, lay at 570 nM. Same read-out and setting: to `CC1(NC(=O)c2nc3cc(Oc4ncccc4OCC(F)(F)F)ccc3o2)CCS(=O)(=O)CC1` [Example 10, N-(4-methyl-1,1-dioxidotetrahydro-2H-thiopyran-4-yl)-5-((3-(2,2,2-trifluoroethoxy)pyridin-2-yl)oxy)benzo[d]oxazole-2-carboxamide] belongs 941 nM; to `Cn1c(C(=O)NC2(C)CCS(=O)(=O)CC2)nc2ccc(Oc3ncccc3OCC(F)(F)F)cc21` [Example 11, 1-Methyl-N-(4-methyl-1,1-dioxidotetrahydro-2H-thiopyran-4-yl)-6-((3-(2,2,2-trifluoroethoxy)pyridin-2-yl)oxy)-1H-benzo[d]imidazole-2-carboxamide], 1.3 nM. On to `Cn1c(C(=O)NC2(C)CCS(=O)(=O)CC2)nc2cc(Oc3ncccc3OCC(F)(F)F)ccc21` [Example 12, 1-Methyl-N-(4-methyl-1,1-dioxidotetrahydro-2H-thiopyran-4-yl)-5-((3-(2,2,2-trifluoroethoxy)pyridin-2-yl)oxy)-1H-benzo[d]imidazole-2-carboxamide], for which the IC50 worked out at 694 nM. On the same count and under the same terms, to `Cn1c(C(=O)NC2(C)CCS(=O)(=O)CC2)nc2ccc(Oc3ncc(Cl)cc3OCC(F)(F)F)c(F)c21` [Example 21, 6-((5-Chloro-3-(2,2,2-trifluoroethoxy)pyridin-2-yl)oxy)-7-fluoro-1-methyl-N-(4-methyl-1,1-dioxidotetrahydro-2H-thiopyran-4-yl)-1H-benzo[d]imidazole-2-carboxamide] belongs 2.3 nM. Still for that read-out and setting: to `Cn1c(C(=O)NC2(C)CCS(=O)(=O)CC2)nc2c(F)c(Oc3ncc(Cl)cc3OCC(F)(F)F)ccc21` [Example 22, 5-((5-chloro-3-(2,2,2-trifluoroethoxy)pyridin-2-yl)oxy)-4-fluoro-1-methyl-N-(4-methyl-1,1-dioxidotetrahydro-2H-thiopyran-4-yl)-1H-benzo[d]imidazole-2-carboxamide] belongs 604 nM. Same read-out and setting: to `Cn1c(C(=O)NC2(C)CCS(=O)(=O)CC2)nc2ccc(Oc3ncc(Cl)cc3OCC(F)(F)F)c(Cl)c21` [Example 23, 7-Chloro-6-((5-chloro-3-(2,2,2-trifluoroethoxy)pyridin-2-yl)oxy)-1-methyl-N-(4-methyl-1,1-dioxidotetrahydro-2H-thiopyran-4-yl)-1H-benzo[d]imidazole-2-carboxamide] belongs 2.2 nM; to `Cn1c(C(=O)NC2(C)CCS(=O)(=O)CC2)nc2c(Cl)c(Oc3ncc(Cl)cc3OCC(F)(F)F)ccc21` [Example 24, 4-Chloro-5-((5-chloro-3-(2,2,2-trifluoroethoxy)pyridin-2-yl)oxy)-1-methyl-N-(4-methyl-1,1-dioxidotetrahydro-2H-thiopyran-4-yl)-1H-benzo[d]imidazole-2-carboxamide], 89 nM; to `Cc1c(Oc2ncc(Cl)cc2OCC(F)(F)F)ccc2nc(C(=O)NC3(C)CCS(=O)(=O)CC3)n(C)c12` [Example 25, 6-((5-chloro-3-(2,2,2-trifluoroethoxy)pyridin-2-yl)oxy)-1,7-dimethyl-N-(4-methyl-1,1-dioxidotetrahydro-2H-thiopyran-4-yl)-1H-benzo[d]imidazole-2-carboxamide], 0.6 nM.

`Cc1c(Oc2ncc(Cl)cc2OCC(F)(F)F)ccc2c1nc(C(=O)NC1(C)CCS(=O)(=O)CC1)n2C` [Example 26, 5-((5-chloro-3-(2,2,2-trifluoroethoxy)pyridin-2-yl)oxy)-1,4-dimethyl-N-(4-methyl-1,1-dioxidotetrahydro-2H-thiopyran-4-yl)-1H-benzo[d]imidazole-2-carboxamide] gave an IC50 of 44 nM. On the same count and under the same terms, to `Cn1c(C(=O)NC2(C)CCS(=O)(=O)CC2)nc2c(F)cc(Oc3ncc(Cl)cc3OCC(F)F)cc21` [Example 27, 6-((5-chloro-3-(2,2-difluoroethoxy)pyridin-2-yl)oxy)-4-fluoro-1-methyl-N-(4-methyl-1,1-dioxidotetrahydro-2H-thiopyran-4-yl)-1H-benzo[d]imidazole-2-carboxamide] belongs 2.7 nM; to `Cn1c(C(=O)NC2(C)CCS(=O)(=O)CC2)nc2ccc(Oc3ncc(Cl)cc3OCC(F)F)nc21` [Example 28, 5-((5-Chloro-3-(2,2-difluoroethoxy)pyridin-2-yl)oxy)-3-methyl-N-(4-methyl-1,1-dioxidotetrahydro-2H-thiopyran-4-yl)-3H-imidazo[4,5-b]pyridine-2-carboxamide], 1.3 nM.

The test is the same for the next values; noted with them: read-out: Human DGAT2 IC50; hDGAT2 membrane prep from Sf-9 cells; 13C18-triolein product by LC/MS/MS.
As to `CC1(NC(=O)c2nc3ccc(Oc4ncccc4OCC(F)(F)F)cc3o2)CCS(=O)(=O)CC1` [Example 2, N-(4-methyl-1,1-dioxo-thian-4-yl)-6-[[3-(2,2,2-trifluoroethoxy)-2-pyridyl]oxy]-1,3-benzoxazole-2-carboxamide], the IC50 was 47 nM. Take `CC1(NC(=O)c2nc3ccc(Oc4ncc(Cl)cc4OCC(F)(F)F)cc3o2)CCS(=O)(=O)CC1` [Example 3, 6-[[5-chloro-3-(2,2,2-trifluoroethoxy)-2-pyridyl]oxy]-N-(4-methyl-1,1-dioxo-thian-4-yl)-1,3-benzoxazole-2-carboxamide]: the IC50 was 63 nM. Still for that read-out and setting: to `CC1(NC(=O)c2nc3ccc(Oc4ncc(Cl)cc4OCC(F)(F)F)cc3o2)CC(F)(F)C1` [Example 4] belongs 236 nM; to `O=C(N[C@H]1CCOC1)c1nc2ccc(Oc3ncc(Cl)cc3OCC(F)(F)F)cc2o1` [Example 5, 6-[[5-chloro-3-(2,2,2-trifluoroethoxy)-2-pyridyl]oxy]-N-[(3S)-tetrahydrofuran-3-yl]-1,3-benzoxazole-2-carboxamide], 1810 nM. Still for that read-out and setting: to `CO[C@]1(C(F)(F)F)C[C@H](NC(=O)c2nc3ccc(Oc4ncc(Cl)cc4OCC(F)(F)F)cc3o2)C1` [Example 6, 6-[[5-chloro-3-(2,2,2-trifluoroethoxy)-2-pyridyl]oxy]-N-[3-methoxy-3-(trifluoromethyl)cyclobutyl]-1,3-benzoxazole-2-carboxamide] belongs 900 nM; to `CO[C@]1(C(F)(F)F)C[C@@H](NC(=O)c2nc3ccc(Oc4ncc(Cl)cc4OCC(F)(F)F)cc3o2)C1` [Example 7, 6-[[5-chloro-3-(2,2,2-trifluoroethoxy)-2-pyridyl]oxy]-N-[3-methoxy-3-(trifluoromethyl)cyclobutyl]-1,3-benzoxazole-2-carboxamide], 1410 nM; to `CC1(NC(=O)c2nc3ccc(Oc4ncc(Cl)cc4OCC(F)(F)F)cc3o2)CCC(F)(F)CC1` [Example 9, 6-[[5-chloro-3-(2,2,2-trifluoroethoxy)-2-pyridyl]oxy]-N-(4,4-difluoro-1-methyl-cyclohexyl)-1,3-benzoxazole-2-carboxamide], 29 nM.
